The values that follow come from US12396942B2, “Seed extract of Annona cherimola” (CLR-Chemisches Laboratorium Dr. Kurt Richter GmbH, priority 2019, dated 2025).

One test relates to IL-1β. In words: Capsaicine-induced IL-1β release in co-culture of keratinocytes and human sensory neurons. To be noted: FIG. 3. Type of test: cell-based. Here is the method: (§1) To examine whether an F230 extract prepared as described in Example 1 is able to inhibit IL-1β and IL-8 expression, a co-culture system of keratinocytes and human sensory neurons was used. Human sensory neurons were derived from human induced pluripotent stem cells (hiPS cells). hiPS cells were obtained by transfecting human fibroblasts which were reprogrammed into […]. hiPS cells were plated in 6 wells plates coated by a thin layer of Matrigel® (Corning GmbH, Kaiserslautern, Germany) at a density of 250,000 cells in a medium composed by DMEM-F12 (Pan-Biotech, Aidenbach, Germany) supplemented with 10% Knockout Serum Replacement (Life technologies, Carlsbad, USA), 0.1 μM retinoic acid (Sigma Aldrich, Taufkirchen, Germany), 1% P/S (Pan-Biotech) and a cocktail of inhibitors. The culture was maintained for 6 days at 37° C. and 5% of CO2.
(§2) After 6 days of differentiation, hiPS cells were plated at a density of 20,000 cells in the differentiation medium using 96-well plates that had been coated with a thin layer of Matrigel®. […] Samples were evaluated by cytometry flux (BD Bioscience) and compared to non-treated controls.

The test system of the next test is IL-8. In words: Capsaicine-induced IL-8 release in co-culture of keratinocytes and human sensory neurons. Type of test: cell-based. As to conditions: FIG. 4. Here is the method:
as §1, §2

The mark [1] stands for this setting: co-culture, capsaicine as stimulus, compared to non-treated controls.
Setting [2] is: co-culture of keratinocytes and human sensory neurons, 1 hour capsaicin stimulation, supernatant.

With `COc1cc(CNC(=O)CCCC/C=C/C(C)C)ccc1O` [capsaicine], the “IL-1β expression on incubation with capsaicine alone” value in the test on IL-1β (setting [1]) is recorded as “strongly induced IL-1β expression”. In the test on IL-8 (setting [1]), the “IL-8 expression on incubation with capsaicine alone” value was “strongly induced IL-8 expression”.
On to `Oc1cc2c(cc1O)CN(C(=S)NCCc1ccc(Cl)cc1)CCC2` [capsazepine], for which, in the test with IL-1β (setting [2]), the “inhibition of capsaicine-induced IL-1β release” value is recorded as “completely abrogates IL-1β release”. Besides, the “inhibition of capsaicine-induced IL-8 release” value in the test on IL-8 (setting [2]) is listed as “significantly reduced IL-8 release”.
